The source of these data is article PMC7217877, “N-AS-triggered SPMs are direct regulators of microglia in a model of Alzheimer’s disease” (Nature Communications, 2020).

One assay concerns APP/PS1 mice. The assay is described as follows: RNA seq of microglia from treated mice (Fig 4f-i). Type of assay: in vivo, mouse. As to conditions: N-AS-treated vs vehicle APP/PS1. The method, then:
Transgenic mouse lines over-expressing the hAPP695swe (APP) and presenilin-1M146V (PS1) mutations were originated from GlaxoSmithKline (Harlow, UK)[32] and maintained as described previously. We purchased 5×FAD mice from Jackson Labs (Stock number. 34840-JAX). Because APP/PS1 and 5xFAD mice show sex differences in disease progression, we used only male mice. To examine possible therapeutic effect of N-AS and aspirin in APP/PS1 mice, the N-AS (30 mg kg^−1, Sigma-Aldrich, 01912) was injected daily s.c. for 8 weeks to 7-months-old APP/PS1 mice until the age of 9 months, and aspirin (2 mg kg^−1, Sigma-Aldrich, A5376)[33] was administrated orally to 7-months-old APP/PS1 mice for 8 weeks. […]
Total RNA was isolated in microglia derived from WT, APP/PS1, and APP/PS1 mice treated with N-AS using Trizol reagent (Invitrogen). RNA quality was assessed by Agilent 2100 bioanalyzer using the RNA 6000 Nano Chip (Agilent Technologies, Amstelveen, The Netherlands), and RNA quantification was performed using ND-2000 Spectrophotometer (Thermo Inc., DE, USA). […] Quantification was performed using the library quantification kit using a StepOne Real-Time PCR System (Life Technologies, Inc., USA). […] Then, total RNA-Seq reads were mapped using TopHat software tool in order to obtain bam file (alignment file). […]

Assay [1] has as its system immortalized human microglia. Kind of assay: live-cell phagocytosis assay (bead uptake, Supplementary Fig 6e,f). Type of assay: cell-based. The procedure: Live-cell phagocytosis assays were performed according to previously described procedures with minor modifications. Briefly, in a glass bottom cell culture dish (SPL, 101350), adult SV40 immortalized human microglia cells (Applied Biologics Materials, T0251) were seeded for phagocytosis assay. […] After incubation, the microglia were treated with 0 or 2.5 μM N-AS (Sigma-Aldrich, 01912) at 37 °C for 2 h. FITC beads (Invitrogen) preopsonized in FBS (Gibco) were added at a concentration at 0.01% and then immediately observed using a laser scanning confocal microscope equipped with a live cell chamber system (FV3000, Olympus) for 2 h. Confocal images were collected every 5 min for 2 h and analyzed using the ImageJ software (National Institutes of Health).

Another assay concerns the target T1, COX2 WT (Homo sapiens, UniProt P35354).
T1 construct: His (N); made in house
T1 sequence (P35354 18-604): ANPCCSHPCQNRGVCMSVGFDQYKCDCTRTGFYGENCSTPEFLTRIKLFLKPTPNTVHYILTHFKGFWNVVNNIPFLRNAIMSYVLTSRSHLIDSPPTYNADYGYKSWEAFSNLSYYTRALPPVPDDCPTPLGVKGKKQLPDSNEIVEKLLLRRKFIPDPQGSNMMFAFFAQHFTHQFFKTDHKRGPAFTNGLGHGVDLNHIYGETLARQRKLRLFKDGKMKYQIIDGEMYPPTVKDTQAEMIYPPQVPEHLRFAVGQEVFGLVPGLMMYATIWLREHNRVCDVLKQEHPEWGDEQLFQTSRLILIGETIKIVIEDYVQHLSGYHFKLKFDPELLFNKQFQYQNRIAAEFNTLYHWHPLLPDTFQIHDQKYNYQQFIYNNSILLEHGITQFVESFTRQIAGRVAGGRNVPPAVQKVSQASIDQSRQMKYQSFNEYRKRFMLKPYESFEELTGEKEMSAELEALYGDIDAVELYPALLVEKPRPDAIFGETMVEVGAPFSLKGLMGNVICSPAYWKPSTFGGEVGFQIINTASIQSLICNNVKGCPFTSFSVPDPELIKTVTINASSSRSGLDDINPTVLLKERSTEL
Kind of assay: filter binding assay of [14C] N-AS to COX2. To be noted: COX2 Control; 0.2 uM (20 pmol); replicates.

“And” between values parts separate entries of the source, which are not always exact repeats. Equal values may be shown once.

Consider `CCCCCCCCCCCCC/C=C/[C@@H](O)[C@H](CO)NC(C)=O` [N-AS, N-((2S,3R,E)-1,3-Dihydroxyoctadec-4-en-2-yl)acetamide], for which the “microglial gene expression pattern (RNA seq)” value with APP/PS1 mice is given as “upregulation of several reactive microglial genes”. Further, the “phagocytosis capacity, in words” value in assay [1] (Aβ-treated human microglia + N-AS) is “improved SPM production and phagocytosis capacity”. Moreover, the “Final number of beads per cell (at 120 min)” value in assay [1] (human microglia, Ab 0mM, sFig 6f) was 20 and 14 and 16 and 11 and 13 and 15. For the same molecule, the “binding velocity (Vbinding)” value on COX2 WT is 0.350 nM/min and 0.395 nM/min and 0.289 nM/min.
